Tested on: 186277-243-T-J2-PDC complex spheroids, viability
Assay: Anticancer human tumor 186277-243-T-J2-PDC patient-derived colon adenocarcinoma cell line growth inhibition [RAS]
Conditions: for IC50: curve of first compound; for viability, T/C: stronger effect = lower value
Outline: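 Tumour cells grown as complex spheroids with HUVEC endothelial cells and mesenchymal stem cells, treated with RAS pathway inhibitor combinations. Each agent spans half-log steps from near clinical Cmax, or 10 microM where Cmax is unknown.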

[1] = second compound 0.0316 µM, first compound 0.000949 µM
[2] = second compound 0.0316 µM, first compound 0.003 µM
[3] = second compound 0.0316 µM, first compound 0.00949 µM
[4] = second compound 0.0316 µM, first compound 0.03 µM
[5] = second compound 0.0316 µM, first compound 0.0949 µM
[6] = second compound 0.0316 µM, first compound 0.3 µM
[7] = second compound 0.1 µM, first compound 0.000949 µM
[8] = second compound 0.1 µM, first compound 0.003 µM
[9] = second compound 0.1 µM, first compound 0.00949 µM
[10] = second compound 0.1 µM, first compound 0.03 µM
[11] = second compound 0.1 µM, first compound 0.0949 µM
[12] = second compound 0.1 µM, first compound 0.3 µM
[13] = second compound 0.316 µM, first compound 0.000949 µM
[14] = second compound 0.316 µM, first compound 0.003 µM
[15] = second compound 0.316 µM, first compound 0.00949 µM
[16] = second compound 0.316 µM, first compound 0.03 µM
[17] = second compound 0.316 µM, first compound 0.0949 µM
[18] = second compound 0.316 µM, first compound 0.3 µM
[19] = second compound 1 µM, first compound 0.000949 µM
[20] = second compound 1 µM, first compound 0.003 µM
[21] = second compound 1 µM, first compound 0.00949 µM
[22] = second compound 1 µM, first compound 0.03 µM
[23] = second compound 1 µM, first compound 0.0949 µM
[24] = second compound 1 µM, first compound 0.3 µM
[25] = second compound 3.16 µM, first compound 0.000949 µM
[26] = second compound 3.16 µM, first compound 0.003 µM
[27] = second compound 3.16 µM, first compound 0.00949 µM
[28] = second compound 3.16 µM, first compound 0.03 µM
[29] = second compound 3.16 µM, first compound 0.0949 µM
[30] = second compound 3.16 µM, first compound 0.3 µM
[31] = second compound 10 µM, first compound 0.000949 µM
[32] = second compound 10 µM, first compound 0.003 µM
[33] = second compound 10 µM, first compound 0.00949 µM
[34] = second compound 10 µM, first compound 0.03 µM
[35] = second compound 10 µM, first compound 0.0949 µM
[36] = second compound 10 µM, first compound 0.3 µM
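Also: spheroids exposed to compounds for 7 days before viability read.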

C=CC(=O)N1CCN(c2nc(OCC3CCCN3C)nc3c(F)c(-c4nc(N)cc(C)c4C(F)(F)F)c(Cl)cc23)C(C)C1 (stereo unspecified) + C#Cc1c(F)ccc2cc(O)cc(-c3ncc4c(N5CC6CCC(C5)N6)nc(OCC56CCCN5CC(F)C6)nc4c3F)c12
IC50 (second compound 0.0316 µM): > 1000 nM
IC50 (second compound 0.1 µM): 325 nM
IC50 (second compound 0.316 µM): < 3.16 nM
IC50 (second compound 1 µM): < 3.16 nM
IC50 (second compound 3.16 µM): < 3.16 nM
IC50 (second compound 10 µM): < 3.16 nM
viability, T/C (second compound 0.0316 µM, first compound 0.00316 µM): 75.1%
viability, T/C (second compound 0.0316 µM, first compound 0.01 µM): 97.6%
viability, T/C (second compound 0.0316 µM, first compound 0.0316 µM): 84.3%
viability, T/C (second compound 0.0316 µM, first compound 0.1 µM): 78.3%
viability, T/C (second compound 0.0316 µM, first compound 0.316 µM): 79.5%
viability, T/C (second compound 0.0316 µM, first compound 1 µM): 54.6%
viability, T/C (second compound 0.1 µM, first compound 0.00316 µM): 69.6%
viability, T/C (second compound 0.1 µM, first compound 0.01 µM): 73.7%
viability, T/C (second compound 0.1 µM, first compound 0.0316 µM): 60.4%
viability, T/C (second compound 0.1 µM, first compound 0.1 µM): 58.4%
viability, T/C (second compound 0.1 µM, first compound 0.316 µM): 53.1%
viability, T/C (second compound 0.1 µM, first compound 1 µM): 35.8%
viability, T/C (second compound 0.316 µM, first compound 0.00316 µM): 24.2%
viability, T/C (second compound 0.316 µM, first compound 0.01 µM): 35.7%
viability, T/C (second compound 0.316 µM, first compound 0.0316 µM): 37.8%
viability, T/C (second compound 0.316 µM, first compound 0.1 µM): 25.2%
viability, T/C (second compound 0.316 µM, first compound 0.316 µM): 33.2%
viability, T/C (second compound 0.316 µM, first compound 1 µM): 24.2%
viability, T/C (second compound 1 µM, first compound 0.00316 µM): 18.1%
viability, T/C (second compound 1 µM, first compound 0.01 µM): 19.1%
viability, T/C (second compound 1 µM, first compound 0.0316 µM): 19.1%
viability, T/C (second compound 1 µM, first compound 0.1 µM): 18.6%
viability, T/C (second compound 1 µM, first compound 0.316 µM): 19%
viability, T/C (second compound 1 µM, first compound 1 µM): 15.5%
viability, T/C (second compound 3.16 µM, first compound 0.00316 µM): 9.97%
viability, T/C (second compound 3.16 µM, first compound 0.01 µM): 14.1%
viability, T/C (second compound 3.16 µM, first compound 0.0316 µM): 12.5%
viability, T/C (second compound 3.16 µM, first compound 0.1 µM): 13.3%
viability, T/C (second compound 3.16 µM, first compound 0.316 µM): 15.5%
viability, T/C (second compound 3.16 µM, first compound 1 µM): 10.9%
viability, T/C (second compound 10 µM, first compound 0.00316 µM): 8.29%
viability, T/C (second compound 10 µM, first compound 0.01 µM): 9.21%
viability, T/C (second compound 10 µM, first compound 0.0316 µM): 11.5%
viability, T/C (second compound 10 µM, first compound 0.1 µM): 11%
viability, T/C (second compound 10 µM, first compound 0.316 µM): 11.3%
viability, T/C (second compound 10 µM, first compound 1 µM): 8.56%

CC1(C)CCC(Nc2ncc(C(F)(F)F)c(-c3c[nH]c4c(P(C)(C)=O)c(C#N)ccc34)n2)CN1 (stereo unspecified) + C#Cc1c(F)ccc2cc(O)cc(-c3ncc4c(N5CC6CCC(C5)N6)nc(OCC56CCCN5CC(F)C6)nc4c3F)c12
IC50 (second compound 0.0316 µM): 69.8 nM
IC50 (second compound 0.1 µM): 12.1 nM
IC50 (second compound 0.316 µM): < 0.949 nM
IC50 (second compound 1 µM): < 0.949 nM
IC50 (second compound 3.16 µM): < 0.949 nM
IC50 (second compound 10 µM): < 0.949 nM
viability, T/C [1]: 91.9%
viability, T/C [2]: 80.4%
viability, T/C [3]: 60.4%
viability, T/C [4]: 55.8%
viability, T/C [5]: 51.8%
viability, T/C [6]: 40.9%
viability, T/C [7]: 50%
viability, T/C [8]: 67.4%
viability, T/C [9]: 55.4%
viability, T/C [10]: 29%
viability, T/C [11]: 34.5%
viability, T/C [12]: 26.1%
viability, T/C [13]: 27.9%
viability, T/C [14]: 29.9%
viability, T/C [15]: 23%
viability, T/C [16]: 15.9%
viability, T/C [17]: 15.2%
viability, T/C [18]: 17.2%
viability, T/C [19]: 15.6%
viability, T/C [20]: 16.5%
viability, T/C [21]: 13%
viability, T/C [22]: 13.9%
viability, T/C [23]: 12.4%
viability, T/C [24]: 11.5%
viability, T/C [25]: 12.4%
viability, T/C [26]: 11.7%
viability, T/C [27]: 11%
viability, T/C [28]: 12.5%
viability, T/C [29]: 11.2%
viability, T/C [30]: 8.62%
viability, T/C [31]: 8.95%
viability, T/C [32]: 9.05%
viability, T/C [33]: 7.62%
viability, T/C [34]: 6.45%
viability, T/C [35]: 9.73%
viability, T/C [36]: 7.54%

CCc1c2c(nc3ccc(O)cc13)-c1cc3c(c(=O)n1C2)COC(=O)[C@]3(O)CC + C#Cc1c(F)ccc2cc(O)cc(-c3ncc4c(N5CC6CCC(C5)N6)nc(OCC56CCCN5CC(F)C6)nc4c3F)c12
IC50 (second compound 0.0316 µM): 2.64 nM
IC50 (second compound 0.1 µM): < 0.949 nM
IC50 (second compound 0.316 µM): < 0.949 nM
IC50 (second compound 1 µM): < 0.949 nM
IC50 (second compound 3.16 µM): < 0.949 nM
IC50 (second compound 10 µM): < 0.949 nM
viability, T/C [1]: 72.5%
viability, T/C [2]: 40.5%
viability, T/C [3]: 36.7%
viability, T/C [4]: 20.9%
viability, T/C [5]: 8.73%
viability, T/C [6]: 5.87%
viability, T/C [7]: 35.5%
viability, T/C [8]: 21.9%
viability, T/C [9]: 16.6%
viability, T/C [10]: 12.2%
viability, T/C [11]: 5.42%
viability, T/C [12]: 6.04%
viability, T/C [13]: 14.3%
viability, T/C [14]: 14.1%
viability, T/C [15]: 9.89%
viability, T/C [16]: 7.42%
viability, T/C [17]: 5.03%
viability, T/C [18]: 3.68%
viability, T/C [19]: 7.55%
viability, T/C [20]: 8.61%
viability, T/C [21]: 8.45%
viability, T/C [22]: 6.92%
viability, T/C [23]: 4.24%
viability, T/C [24]: 3.83%
viability, T/C [25]: 8.46%
viability, T/C [26]: 7.85%
viability, T/C [27]: 7.31%
viability, T/C [28]: 5.89%
viability, T/C [29]: 4.55%
viability, T/C [30]: 2.75%
viability, T/C [31]: 6.68%
viability, T/C [32]: 6.39%
viability, T/C [33]: 6.05%
viability, T/C [34]: 5.42%
viability, T/C [35]: 3.58%
viability, T/C [36]: 2.72%

Source: PubChem BioAssay AID2060908 (Molecular Pharmacology Branch, DTP, NCI, 2025)
